US6359008B1, “Acylated aminoacids for increasing the uptake of selected substances by organisms” (Lovesgrove Research Limited, priority 1998, dated 2002)

Tests used:
Rainbow Trout = assay: Field trial of Corbinol as pigment adsorption enhancer in fish feed; type: in vivo
Description: A field trial was conducted at a fish farm facility adjacent to the Rheidol hydroelectric station to establish a preliminary indication of the efficacy of Corbinol comprising 75 g palmitoylaminoproprionic acid with 925 g of silica talc carrier as a pigment adsorption enhancer. Approximately 250 Rainbow Trout were divided into two groups and held in separate tanks each 4 m×4 m×1 m. The fish were hand fed for a duration of 4 weeks, the diets for the two groups being: Control: Mainstream Trout Hi-Performance 40 Treated: Mainstream Trout Hi-Performance+Corbinol (1 kg/tonne) At the end of the trial 100 farm fish from each group were removed and individually weighed. Equal levels of flesh samples were bulked together forming 10 groups of 10 for both the control and treated diets. HPLC analysis was conducted using a Merck-Hitachi L-4250 UV-Vis detector following an isocratic method referred to in a Roche Ltd publication.

[1] = Heat stability of the compound; type: physicochemical
Excerpt: The high polar head group appears to provide the bio-activity of the compound without having to incorporate a phosphonic group therein.

CCCCCCCCCCCCCCCC(=O)NC(C)C(=O)O (centres unmarked) [2-palmitoylaminoproprionic acid]
uptake of selected compounds, in particular pigments, in organisms such as fish (Rainbow Trout): increase the uptake of selected compounds | heat stable to [1]: approximately 130 °C
